Read-outs that look alike come from different tables or passages of the source. *1 amine or outer side, *2 acyl side, *3 side chain or, on linkers, in order; H or OH if unused. Where a SMILES comes first, the peptide text is derived from it. Side-chain parts run from the residue outwards. [ ]: non-standard residue; d: D form. The star is where a group is joined. Undecanoyl(11-OPh(4-COOH)) = O=C(O)c1ccc(OCCCCCCCCCCC(=O)*)cc1; γGlu = O=C(O)[C@H](CCC(=O)[*:2])N[*:1]; AEEA = NCCOCCOCC(=O)O; Aib = CC(C)(N)C(=O)O
Tests used:
[1] = molecular target: T1, human GLP-1 receptor (Homo sapiens, UniProt P43220); assay: In vitro potency, CRE luciferase reporter gene assay in BHK cells expressing the human GLP-1 receptor; assay type: cell-based; settings: average of duplicates;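 further: firefly luciferase luminescence read after 3 h incubation at 37 °C, compounds tested in an eight-point series from 0.01 pM to 100 nM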
T1 construct: expressed in transfected cells; host or cells: membranes from BHK cells, parent line BHKTS13, clone FCW467-12A
Target sequence in this assay (P43220 24-463): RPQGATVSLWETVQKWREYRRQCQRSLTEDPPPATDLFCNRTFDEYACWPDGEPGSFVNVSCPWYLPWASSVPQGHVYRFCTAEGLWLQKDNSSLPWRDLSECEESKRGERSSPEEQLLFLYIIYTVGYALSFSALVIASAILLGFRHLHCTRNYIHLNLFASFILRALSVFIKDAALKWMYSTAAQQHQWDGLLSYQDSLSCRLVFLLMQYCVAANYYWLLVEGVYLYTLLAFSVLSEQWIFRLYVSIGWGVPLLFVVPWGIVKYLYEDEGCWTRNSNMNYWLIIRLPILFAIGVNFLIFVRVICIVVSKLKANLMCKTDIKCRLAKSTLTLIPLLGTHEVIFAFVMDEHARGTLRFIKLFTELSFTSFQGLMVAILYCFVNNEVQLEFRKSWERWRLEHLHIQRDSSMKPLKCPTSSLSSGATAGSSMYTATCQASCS
Method: The in vitro potency is the measure of human GLP-1 receptor activation in a whole cell assay.
In vitro potency was determined by measuring the response of the human GLP-1 receptor in a reporter gene assay. The assay was performed in a stably transfected BHK cell line that expresses the human GLP-1 receptor and contains the DNA for the cAMP response element (CRE) coupled to a promoter and the gene for firefly luciferase (CRE luciferase). When the human GLP-1 receptor is activated it results in the production of cAMP, which in turn results in the luciferase protein being expressed. When assay incubation is completed the luciferase substrate (luciferin) is added and the enzyme converts luciferin to oxyluciferin to produce bioluminescence. The luminescence is measured as the readout for the assay.
An increase of the in vitro potency, EC50 value, in the presence of serum albumin would indicate an affinity to serum albumin and represents a method to predict a protracted pharmacokinetic profile of the test substance in animal models.
The cells were cultured at 5% CO2 in Cell Culture Medium. They were aliquoted and stored in liquid nitrogen. Before each assay an aliquot is taken up and washed twice in PBS before being suspended at the desired concentration in the assay specific buffer. For 96-well plates the suspension was made to give a final concentration of 5×10^3 cells/well.
Assay Medium consisted of DMEM w/o phenol red, 10 mM Hepes and 1× Glutamax. The 1% Assay Buffer consisted of 2% ovalbumin, 0.2% Pluronic F-68 and 2% HSA in Assay Medium. The 0% Assay Buffer consisted of 2% ovalbumin and 0.2% Pluronic F-68 in Assay Medium.
1) Cell stocks were thawed in a 37° C. water bath.
2) Cells were washed three times in PBS.
3) The cells were counted and adjusted to 5×10^3 cells/50 μl (1×10^5 cells/ml) in Assay Medium. A 50 μl aliquot of cells was transferred to each well in the assay plate.
4) Stocks of the test compounds and reference compounds were diluted to a concentration of 0.2 pM in 0% Assay Buffer for the 0% HSA CRE luciferase assay and 1% Assay Buffer for the 1% HSA CRE luciferase assay. […] Compounds were tested at the following final concentrations: 1×10^−7 M, 1×10^−8 M; 1×10^−9 M, 1×10^−10 M, 1×10^−11 M, 1×10^−12 M, 1×10^−13 M, and 1×10^−14 M. 6) The assay plate was incubated for 3 h in a 5% CO2 incubator at 37° C. […] 8) A 100 μl aliquot of steadylite plus reagent was added to each well of the assay plate (reagent was light sensitive). 9) Each assay plate was covered with aluminum foil to protect it from light and shaken for 30 min at room temperature. 10) Each assay plate was read in a Packard TopCount NXT instrument. Calculations and Results
The data from the TopCount instrument were transferred to GraphPad Prism software. The software performs a non-linear regression (log(agonist) vs response).
A minimum of two replicates was measured for each sample on separate assay plates. The reported values are averages of the duplicates. For some examples more than one assay was run and in this case the data reported are the averages of the averaged duplicates.

[2] = Pharmacokinetic study in mini pigs after i.v. administration; assay type: in vivo; settings: female, Göttingen, pig, plasma, iv, 2 nmol/kg; read-out: Minipig iv PK, t½ (converted)
Method: The purpose of this study is to determine the protraction in vivo of the GLP-1 derivatives after i.v. administration to mini pigs, i.e. the prolongation of their time in the body and thereby their time of action. This was done in pharmacokinetic (PK) studies, where the terminal half-life of the derivative in question was determined. By terminal half-life is generally meant the period of time it takes to halve a certain plasma concentration, measured after the initial distribution phase.
Female Göttingen mini pigs obtained from Ellegaard Göttingen Minipigs (Dalmose, Denmark) at approximately 5 months of age and weighing approximately 10 kg were used in the studies. The mini pigs were housed in pens with straw as bedding, four to six together in each pen and fed restrictedly once or twice daily with Altromin 9023 mini pig diet (Chr. Petersen A/S, DK-4100 Ringsted). The pigs were used for repeated pharmacokinetic studies with a suitable wash-out period between successive GLP-1 derivative dosings. An acclimatisation period of 1 week was allowed during which time the mini pigs were trained to be fixated on the back for blood sampling and in slings for i.v. dosing. All handling, dosing and blood sampling of the animals was performed by trained and skilled staff.
The GLP-1 derivatives were dissolved in 50 mM sodium phosphate, 70 mM sodium chloride, 0.05% tween 80, pH 7.4 to a concentration of approximately 20 nmol/ml. Intravenous injections (the volume corresponding to usually 2 nmol/kg, for example 0.1 ml/kg) of the compounds were given as intravenous injections via a Venflon inserted in an ear vein, while the animals were placed un-anaesthetised in a sling. The dose volume was 0.1 ml/kg, and blood was sampled at predefined time points for up till 13 days post dosing (samples were taken with a syringe from a jugular vein). Blood samples (for example 0.8 ml) were collected in EDTA buffer (8 mM) and then centrifuged at 4° C. and 2000 G for 10 minutes.
Individual plasma concentration-time profiles were analysed by a non-compartmental model in WinNonlin v. […] 6.2 or 6.3 (Pharsight Inc., Mountain View, Calif., USA), or other relevant software for PK analysis, and the resulting terminal half-lives determined.

[3] = molecular target: T1, human GLP-1 receptor; assay: GLP-1 receptor binding, competitive 125I-GLP-1 SPA binding assay on isolated membranes; settings: low HSA (max. 0.001% final assay concentration)
[4] = 0% HSA, read-out: EC50/pM (0% HSA)
[5] = EC50/pM (1% HSA), 1% HSA final assay concentration

| SMILES | EC50 [1, 4] [pM] | EC50 [1, 5] [pM] | half-life [2] [h] | IC50 ([3]; read-out: IC50/nM (low HSA)) [nM] | EC50 ([1]; EC50/pM (0% HSA), 0% HSA) [pM] | IC50 ([3]; IC50/nM (low HSA)) [nM] |
| --- | --- | --- | --- | --- | --- | --- |
| CC[C@H](C)[C@H](NC(=O)[C@H](Cc1ccccc1)NC(=O)[C@H](CCC(=O)O)NC(=O)[C@H](CCCNC(=N)N)NC(=O)[C@H](C)NC(=O)[C@H](C)NC(=O)[C@H](CCC(N)=O)NC(=O)[C@H](CCC(=O)O)NC(=O)[C@H](CCC(=O)O)NC(=O)[C@H](CC(C)C)NC(=O)[C@H](Cc1ccc(O)cc1)NC(=O)[C@H](CO)NC(=O)[C@H](CO)NC(=O)[C@@H](NC(=O)[C@H](CC(=O)O)NC(=O)[C@H](CO)NC(=O)[C@@H](NC(=O)[C@H](Cc1ccccc1)NC(=O)[C@@H](NC(=O)CNC(=O)[C@H](CCC(=O)O)NC(=O)C(C)(C)NC(=O)[C@@H](N)Cc1c[nH]cn1)[C@@H](C)O)[C@@H](C)O)C(C)C)C(=O)N[C@@H](C)C(=O)N[C@@H](Cc1c[nH]c2ccccc12)C(=O)N[C@@H](CC(C)C)C(=O)N[C@H](C(=O)N[C@@H](CCCNC(=N)N)C(=O)NCC(=O)N[C@@H](CCCCNC(=O)COCCOCCNC(=O)CC[C@H](NC(=O)CC[C@H](NC(=O)CCCCCCCCCCCCC(=O)O)C(=O)O)C(=O)O)C(=O)N[C@@H](CCCCNC(=O)COCCOCCNC(=O)CC[C@H](NC(=O)CC[C@H](NC(=O)CCCCCCCCCCCCC(=O)O)C(=O)O)C(=O)O)C(=O)O)C(C)C [Example 13, N{Epsilon-36}-[2-[2-[2-[[(4S)-4-carboxy-4-[[(4S)-4-carboxy-4-(13-carboxytridecanoylamino)butanoyl]amino]butanoyl]amino]ethoxy]ethoxy]acetyl], N{Epsilon-37}-[2-[2-[2-[[(4S)-4-carboxy-4-[[(4S)-4-carboxy-4-(13-carboxytridecanoylamino)butanoyl]amino]butanoyl]amino]ethoxy]ethoxy]acetyl]-[Aib8,Glu22,Arg26,Arg34,Lys36,Lys37]-GLP-1-(7-37)-peptide] | 1.3 | 18 | 98 | 0.47 | – | – |
| CC[C@H](C)[C@H](NC(=O)[C@H](Cc1ccccc1)NC(=O)[C@H](CCC(=O)O)NC(=O)[C@H](CCCNC(=N)N)NC(=O)[C@H](C)NC(=O)[C@H](C)NC(=O)[C@H](CCC(N)=O)NC(=O)[C@H](CCC(=O)O)NC(=O)[C@H](CCC(=O)O)NC(=O)[C@H](CC(C)C)NC(=O)[C@H](Cc1ccc(O)cc1)NC(=O)[C@H](CO)NC(=O)[C@H](CO)NC(=O)[C@@H](NC(=O)[C@H](CC(=O)O)NC(=O)[C@H](CO)NC(=O)[C@@H](NC(=O)[C@H](Cc1ccccc1)NC(=O)[C@@H](NC(=O)CNC(=O)[C@H](CCC(=O)O)NC(=O)C(C)(C)NC(=O)[C@@H](N)Cc1c[nH]cn1)[C@@H](C)O)[C@@H](C)O)C(C)C)C(=O)N[C@@H](C)C(=O)N[C@@H](Cc1c[nH]c2ccccc12)C(=O)N[C@@H](CC(C)C)C(=O)N[C@H](C(=O)N[C@@H](CCCNC(=N)N)C(=O)NCC(=O)N[C@@H](CCCCNC(=O)COCCOCCNC(=O)COCCOCCNC(=O)CC[C@H](NC(=O)CCCCCCCCCCCOc1ccc(C(=O)O)cc1)C(=O)O)C(=O)N[C@@H](CCCCNC(=O)COCCOCCNC(=O)COCCOCCNC(=O)CC[C@H](NC(=O)CCCCCCCCCCCOc1ccc(C(=O)O)cc1)C(=O)O)C(=O)O)C(C)C [Example 26, N{Epsilon-36}-[2-[2-[2-[[2-[2-[2-[[(4S)-4-carboxy-4-[12-(4-carboxyphenoxy)dodecanoylamino]butanoyl]amino]ethoxy]ethoxy]acetyl]amino]ethoxy]ethoxy]acetyl], N{Epsilon-37}-[2-[2-[2-[[2-[2-[2-[[(4S)-4-carboxy-4-[12-(4-carboxyphenoxy)dodecanoylamino]butanoyl]amino]ethoxy]ethoxy]acetyl]amino]ethoxy]ethoxy]acetyl]-[Aib8,Glu22,Arg26,Arg34,Lys36,Lys37]-GLP-1-(7-37)-peptide] | – | 124 | – | – | 1.5 | 0.29 |
| CC[C@H](C)[C@H](NC(=O)[C@H](Cc1ccccc1)NC(=O)[C@H](CCC(=O)O)NC(=O)[C@H](CCCNC(=N)N)NC(=O)[C@H](C)NC(=O)[C@H](C)NC(=O)[C@H](CCC(N)=O)NC(=O)[C@H](CCC(=O)O)NC(=O)[C@H](CCC(=O)O)NC(=O)[C@H](CC(C)C)NC(=O)[C@H](Cc1ccc(O)cc1)NC(=O)[C@H](CO)NC(=O)[C@H](CO)NC(=O)[C@@H](NC(=O)[C@H](CC(=O)O)NC(=O)[C@H](CO)NC(=O)[C@@H](NC(=O)[C@H](Cc1ccccc1)NC(=O)[C@@H](NC(=O)CNC(=O)[C@H](CCC(=O)O)NC(=O)C(C)(C)NC(=O)[C@@H](N)Cc1c[nH]cn1)[C@@H](C)O)[C@@H](C)O)C(C)C)C(=O)N[C@@H](C)C(=O)N[C@@H](Cc1c[nH]c2ccccc12)C(=O)N[C@@H](CC(C)C)C(=O)N[C@H](C(=O)N[C@@H](CCC(N)=O)C(=O)NCC(=O)N[C@@H](CCCCNC(=O)COCCOCCNC(=O)COCCOCCNC(=O)CC[C@H](NC(=O)CCCCCCCCCCOc1ccc(C(=O)O)cc1)C(=O)O)C(=O)N[C@@H](CCCCNC(=O)COCCOCCNC(=O)COCCOCCNC(=O)CC[C@H](NC(=O)CCCCCCCCCCOc1ccc(C(=O)O)cc1)C(=O)O)C(=O)O)C(C)C [Example 7] (H-H[Aib]EGTFTSDVSSYLEEQAAREFIAWLVQGK([AEEA-AEEA-γGlu-Undecanoyl(11-OPh(4-COOH))])K([AEEA-AEEA-γGlu-Undecanoyl(11-OPh(4-COOH))])-OH; N-terminus and C-terminus assumed) | – | 143 | 107 | – | 1.5 | 0.47 |
| CC[C@H](C)[C@H](NC(=O)[C@H](Cc1ccccc1)NC(=O)[C@H](CCC(=O)O)NC(=O)[C@H](CCCNC(=N)N)NC(=O)[C@H](C)NC(=O)[C@H](C)NC(=O)[C@H](CCC(N)=O)NC(=O)[C@H](CCC(=O)O)NC(=O)[C@H](CCC(=O)O)NC(=O)[C@H](CC(C)C)NC(=O)[C@H](Cc1ccc(O)cc1)NC(=O)[C@H](CO)NC(=O)[C@H](CO)NC(=O)[C@@H](NC(=O)[C@H](CC(=O)O)NC(=O)[C@H](CO)NC(=O)[C@@H](NC(=O)[C@H](Cc1ccccc1)NC(=O)[C@@H](NC(=O)CNC(=O)[C@H](CCC(=O)O)NC(=O)C(C)(C)NC(=O)[C@@H](N)Cc1c[nH]cn1)[C@@H](C)O)[C@@H](C)O)C(C)C)C(=O)N[C@@H](C)C(=O)N[C@@H](Cc1c[nH]c2ccccc12)C(=O)N[C@@H](CC(C)C)C(=O)N[C@H](C(=O)N[C@@H](CCCNC(=N)N)C(=O)NCC(=O)N[C@@H](CCCCNC(=O)COCCOCCNC(=O)COCCOCCNC(=O)COCCOCCNC(=O)CC[C@H](NC(=O)CCCCCCCCCCCCC(=O)O)C(=O)O)C(=O)N[C@@H](CCCCNC(=O)COCCOCCNC(=O)COCCOCCNC(=O)COCCOCCNC(=O)CC[C@H](NC(=O)CCCCCCCCCCCCC(=O)O)C(=O)O)C(=O)O)C(C)C [Example 12] | 1.2 | 10 | 80 | 0.2 | – | – |
| CC[C@H](C)[C@H](NC(=O)[C@H](Cc1ccccc1)NC(=O)[C@H](CCC(=O)O)NC(=O)[C@H](CCCNC(=N)N)NC(=O)[C@H](C)NC(=O)[C@H](C)NC(=O)[C@H](CCC(N)=O)NC(=O)[C@H](CCC(=O)O)NC(=O)[C@H](CCC(=O)O)NC(=O)[C@H](CC(C)C)NC(=O)[C@H](Cc1ccc(O)cc1)NC(=O)[C@H](CO)NC(=O)[C@H](CO)NC(=O)[C@@H](NC(=O)[C@H](CC(=O)O)NC(=O)[C@H](CO)NC(=O)[C@@H](NC(=O)[C@H](Cc1ccccc1)NC(=O)[C@@H](NC(=O)CNC(=O)[C@H](CCC(=O)O)NC(=O)C(C)(C)NC(=O)[C@@H](N)Cc1c[nH]cn1)[C@@H](C)O)[C@@H](C)O)C(C)C)C(=O)N[C@@H](C)C(=O)N[C@@H](Cc1c[nH]c2ccccc12)C(=O)N[C@@H](CC(C)C)C(=O)N[C@H](C(=O)N[C@@H](CCCNC(=N)N)C(=O)NCC(=O)N[C@@H](CCCCNC(=O)COCCOCCNC(=O)COCCOCCNC(=O)CC[C@H](NC(=O)CCCCCCCCOc1cccc(C(=O)O)c1)C(=O)O)C(=O)N[C@@H](CCCCNC(=O)COCCOCCNC(=O)COCCOCCNC(=O)CC[C@H](NC(=O)CCCCCCCCOc1cccc(C(=O)O)c1)C(=O)O)C(=O)O)C(C)C [Example 23, N{Epsilon-36}-[2-[2-[2-[[2-[2-[2-[[(4S)-4-carboxy-4-[9-(3-carboxyphenoxy)nonanoylamino]butanoyl]amino]ethoxy]ethoxy]acetyl]amino]ethoxy]ethoxy]acetyl], N{Epsilon-37}-[2-[2-[2-[[2-[2-[2-[[(4S)-4-carboxy-4-[9-(3-carboxyphenoxy)nonanoylamino]butanoyl]amino]ethoxy]ethoxy]acetyl]amino]ethoxy]ethoxy]acetyl]-[Aib8,Glu22,Arg26,Arg34,Lys36,Lys37]-GLP-1-(7-37)-peptide] | – | 15 | – | – | 7.7 | 0.29 |
